{"source": "paper PMC7175181", "about": "(Biomolecules, 2020)", "key": {"ACE [1]": {"system": "ACE", "details": "ref [53]; cited from earlier work"}, "ACE [2]": {"molecular_target": "T1, ACE (Homo sapiens, UniProt P12821)", "T1 construct": "purchased Dojindo Laboratories ACE Kit-WST", "T1 sequence (P12821 30-1306, species assumed)": "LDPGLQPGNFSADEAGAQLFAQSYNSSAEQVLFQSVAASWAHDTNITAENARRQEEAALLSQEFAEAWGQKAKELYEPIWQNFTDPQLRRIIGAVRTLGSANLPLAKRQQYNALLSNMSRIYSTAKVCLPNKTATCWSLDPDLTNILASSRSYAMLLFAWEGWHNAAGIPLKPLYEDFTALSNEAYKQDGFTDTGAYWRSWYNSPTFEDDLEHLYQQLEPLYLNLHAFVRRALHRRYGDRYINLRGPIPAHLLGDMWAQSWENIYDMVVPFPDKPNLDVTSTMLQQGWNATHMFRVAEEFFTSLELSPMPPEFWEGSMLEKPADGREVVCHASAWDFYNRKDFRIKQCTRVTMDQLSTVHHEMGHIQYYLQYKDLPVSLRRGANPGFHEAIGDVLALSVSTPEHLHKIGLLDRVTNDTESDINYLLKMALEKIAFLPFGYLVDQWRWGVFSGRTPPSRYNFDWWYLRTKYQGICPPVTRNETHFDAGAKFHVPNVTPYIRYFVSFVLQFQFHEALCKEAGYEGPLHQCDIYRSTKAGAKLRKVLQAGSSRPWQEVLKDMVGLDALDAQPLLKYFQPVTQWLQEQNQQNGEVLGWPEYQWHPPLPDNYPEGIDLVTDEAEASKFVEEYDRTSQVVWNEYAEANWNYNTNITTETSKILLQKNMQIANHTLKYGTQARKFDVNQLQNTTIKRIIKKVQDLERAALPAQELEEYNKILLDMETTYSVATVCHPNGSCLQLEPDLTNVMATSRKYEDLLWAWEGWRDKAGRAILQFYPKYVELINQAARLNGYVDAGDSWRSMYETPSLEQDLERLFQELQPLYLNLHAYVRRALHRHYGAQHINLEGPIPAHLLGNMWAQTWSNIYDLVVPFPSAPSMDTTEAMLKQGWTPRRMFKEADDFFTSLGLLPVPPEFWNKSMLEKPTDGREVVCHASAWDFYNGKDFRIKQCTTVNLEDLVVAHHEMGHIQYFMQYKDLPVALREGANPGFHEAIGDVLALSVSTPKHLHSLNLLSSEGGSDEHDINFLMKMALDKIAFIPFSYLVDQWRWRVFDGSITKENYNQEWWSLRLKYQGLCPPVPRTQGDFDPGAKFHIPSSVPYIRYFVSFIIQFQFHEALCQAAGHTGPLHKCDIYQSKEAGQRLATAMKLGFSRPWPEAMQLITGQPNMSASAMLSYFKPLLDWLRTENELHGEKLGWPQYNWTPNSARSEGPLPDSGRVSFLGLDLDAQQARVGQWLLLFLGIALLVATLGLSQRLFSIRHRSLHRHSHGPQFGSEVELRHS", "test": "In vitro ACE inhibition assay (ACE Kit-WST)", "format": "biochemical", "details": "for IC50: ACE Kit-WST, 1 h at 37 °C, absorbance 450 nm, non-linear regression, mean of three independent experiments (n = 3); for Comparison of IC50 (ACE inhibition): n = 3, one-way ANOVA and Sidak's multiple-comparisons test", "procedure": "The inhibition of ACE was measured using the ACE Kit-WST (Dojindo Laboratories, Mashiki-machi, Japan). Custom synthesized hemorphin peptides ([…], […], YPWTQRF, and YPWTRRF) were purchased from New England Peptide (Gardner, MA, USA). Indicator working solution and enzyme working solution were prepared according to the manufacturer’s instructions. 10 µL of each dose of hemorphin was added to the wells of a 96-well microplate. 20 µL and 40 µL of deionized water were added in blank 1 and blank 2 wells. 20 µL of the substrate buffer was added to each well, followed by 20 µL of enzyme working solution in all of the sample wells and blank 1. The plate was incubated for 1 h at 37 °C. After the incubation period, 200 µL of indicator working solution was added to each well and then incubated at room temperature for 5 min. After incubation, plate absorbance was measured at 450 nm using Glomax Discover Microplate Reader (Promega, Madison, WI, USA). The inhibition of ACE was calculated using the following equation: Inhibition rate (%) = (Ablank1 − Asample)/(Ablank1 − Ablank2) × 100.\nFrom the obtained data, IC50 was calculated using Prism 7 (GraphPad, San Diego, CA, USA) from a non-linear regression plot of ACE inhibition (%) against peptide concentration (µM).\nNonlinear regression was used to generate dose–response curves in Prism 7 (GraphPad, San Diego, CA, USA). The observed data are presented as mean ± SEM (Standard Error of the Mean). One-way or two-way analysis of variance (ANOVA), as appropriate, were carried out and a comparison of means was performed by Sidak’s multiple-comparisons test to estimate the statistical significance between the different treatments."}, "[3]": {"details": "ref [15],[16]; cited from earlier work", "text": "Hemorphins are endogenous peptides that are produced from beta hemoglobin. Hemorphins of various lengths (4–10 amino acids) have been identified so far. These peptides are mainly produced in the plasma, brain, cerebrospinal fluid, and spinal cord. The decapeptide LVV-hemorphin-7 ([…]) is considered to be the longest form of hemorphin and is found abundantly in the mammalian nervous system. […] Numerous studies have reported various biological activities of hemor ..."}, "ACE [4]": {"molecular_target": "T1, ACE", "design": "method as in 2 sources, one per row (each row's own in cited_ref): ref [54] = [54]; PMID 7945362; doi:10.1006/bbrc.1994.2447; 54. Zhao Q. Sannier F. Garreau I. Guillochon D. Piot J.M. Inhibition and inhibition kinetics of angiotensin converting enzyme activity by hemorphins, isolated from a peptic bovine hemoglobin hydrolysa ||| ref [24] = [24]; PMID 12182948; doi:10.1016/S0196-9781(02)00083-9; 24. Fruitier-Arnaudin I. Cohen M. Bordenave S. Sannier F. Piot J.M. Comparative effects of angiotensin IV and two hemorphins on angiotensin-converting enzyme activity Peptides 2002 23 1465 1470 10.101", "details": "ref [54]; cited from earlier work", "procedure": "An ACE inhibition assay was performed to evaluate the IC50 of these peptides to investigate this further."}, "[5]": {"details": "cited from earlier work", "text": "Angiotensin-I converting enzyme (ACE) is a zinc metallopeptidase that is found in many tissues and biological fluids and it is an important player in regulating RAAS and kallikrein-kinnin system (KKS). There are two main mechanisms by which ACE causes hypertension. Firstly, ACE cleaves two amino acids from the decapeptide angiotensin I to produce the octapeptide angiotensin II, which is a strong vasoconstrictor. Secondly, ACE is involved in the degradation of bradykinnin, a potent vasodilator [5, 6]. ACE is associated with hypertension and remains an important target for the discovery of an ..."}}, "note": "“Also recorded” adds a separate entry of the source. No end group written: not given here.", "data": [{"molecule": "C[C@H](N[C@@H](CCc1ccccc1)C(=O)O)C(=O)N1CCC[C@H]1C(=O)O", "note": "[enalaprilat]", "values": [{"measurement": "Affinity for ACE compared to lisinopril", "setting": "ACE [1]", "result": "lower affinity when compared to lisinopril"}]}, {"molecule": "YPWTRRF [YPWTRRF]", "values": [{"measurement": "IC50", "setting": "ACE [2]", "result": 9.31, "unit": "µM"}, {"measurement": "Comparison of IC50 (ACE inhibition)", "setting": "ACE [2]", "result": "significantly lower IC50"}, {"measurement": "Comparison of IC50 (ACE inhibition)", "setting": "ACE [2]; listed as camel hemorphin-7", "result": "significantly lower than the non-camel hemorphin-7 (25.894 µM) (p < 0.001, n = 3)"}]}, {"molecule": "CC(C)C[C@H](N)C(=O)N[C@H](C(=O)N[C@H](C(=O)N[C@@H](Cc1ccc(O)cc1)C(=O)N1CCC[C@H]1C(=O)N[C@@H](Cc1c[nH]c2ccccc12)C(=O)N[C@H](C(=O)N[C@@H](CCC(N)=O)C(=O)N[C@@H](CCCNC(=N)N)C(=O)N[C@@H](Cc1ccccc1)C(=O)O)[C@@H](C)O)C(C)C)C(C)C", "values": [{"measurement": "Stability compared to other hemorphins", "setting": "[3]", "result": "most stable"}, {"measurement": "IC50", "setting": "ACE [2]", "result": 12.6, "unit": "µM"}, {"measurement": "Comparison of IC50 (ACE inhibition)", "setting": "ACE [2]", "result": "significantly lower than that of YPWTQRF (25.894 µM)"}]}, {"molecule": "CC(C)C[C@H](N)C(=O)N[C@H](C(=O)N[C@H](C(=O)N[C@@H](Cc1ccc(O)cc1)C(=O)N1CCC[C@H]1C(=O)N[C@@H](Cc1c[nH]c2ccccc12)C(=O)N[C@H](C(=O)N[C@@H](CCCNC(=N)N)C(=O)N[C@@H](CCCNC(=N)N)C(=O)N[C@@H](Cc1ccccc1)C(=O)O)[C@@H](C)O)C(C)C)C(C)C", "values": [{"measurement": "IC50", "setting": "ACE [2]", "result": 6.6, "unit": "µM"}, {"measurement": "Comparison of IC50 (ACE inhibition)", "setting": "ACE [2]", "result": "lower than YPWTRRF (9.310 µM); also recorded: the difference between LVVYPWTRRF and YPWTRRF was not significant"}, {"measurement": "Comparison of IC50 (ACE inhibition)", "setting": "ACE [2]; listed as camel LVV-hemorphin-7", "result": "significantly less than non-camel LVV-hemorphin-7 (12.649 µM) (p < 0.05, n = 3)"}]}, {"molecule": "VVYPWTQRF", "values": [{"measurement": "ACE inhibitory activity compared to other hemorphins", "setting": "ACE [4]", "result": "the removal of the N-terminus leucine significantly decreased the ACE inhibition activity of VVYPWTQRF in comparison to LVVYPWTQRF"}]}, {"molecule": "YPWTQRF [YPWTQRF]", "values": [{"measurement": "IC50", "setting": "ACE [2]", "result": 25.9, "unit": "µM"}]}, {"molecule": "C[C@H](CS)C(=O)N1CCC[C@H]1C(=O)O", "note": "[captopril]", "values": [{"measurement": "Side effects", "setting": "[5]", "result": "cough, kidney problems, angioedema, and allergic reactions"}]}]}
